Test results reported in patent publication US20250179045A1, “LPAR1 ANTAGONISTS AND USES THEREOF” (Contineum Therapeutics, Inc., priority 2021, published 2025).

Target: human LPA1 (Homo sapiens, UniProt Q92633)
Assay: In vitro functional assay of lysophosphatidic acid receptor 1 activity (calcium flux)
Type: cell-based
Conditions: B103 cells stably expressing human LPA1; Fluo-4 NW calcium flux after lysophosphatidic acid (18:1) at EC80; compounds 100 pM to 10 μM; read-out: LPA1 IC50
Method: In vitro functional assay of lysophosphatidic acid receptor 1 activity
Primary compound plates were prepared in 100% DMSO (Sigma-Aldrich), secondary compound plates were prepared at 10× concentration in DiVEM (Invitrogen), and tertiary compound plates were prepared at 3x concentration in assay buffer containing HBSS (no Ca^+2/Mg^+2, Invitrogen) and 0.1% BSA (Sigma-Aldrich). Fluo-4 NW calcium assay dye (Invitrogen) was prepared as per manufacturer's recommendations in assay buffer. B103 cells stably expressing human LPA1(J. Chun lab, UCSD) were grown to confluency in DMEM media (Invitrogen) containing 10% FBS (ATCC), […] (Sigma-Aldrich) and […] Geneticin (Sigma-Aldrich), and detached with Accutase (Sigma-Aldrich) prior to assay. The freshly detached cells were resuspended in growth media and plated in black, clear-bottom 96-well plates (Costar) containing compound (i.e., secondary compound plate) at a density of 5×10^4 cells/well. Once plated, cells were left at room temperature for 30 minutes and then transferred to a 37° C., […] incubator for 24 hours. After 24 hours, the growth media was then removed and freshly prepared Fluo-4 NW calcium assay dye was added to cells. Compounds (i.e. tertiary compound plates) were then added back to the dye/cells, returned to the incubator for 30 minutes, and then kept at room temperature for an additional 30 minutes. Finally, lysophosphatidic acid (18:1) at the EC80 concentration was added and calcium flux measured using FlexStation 3 (Molecular Devices). Sigmoidal dose-response curves were generated by measuring […] over 45 sec and calculating the area under the curve. Dose response curves and IC50 values were generated using Prism (GraphPad). Compounds were tested at a final concentration range of 100 pM to 10 μM in 0.10% DMSO.

Chain of human LPA1 (Q92633 whole entry): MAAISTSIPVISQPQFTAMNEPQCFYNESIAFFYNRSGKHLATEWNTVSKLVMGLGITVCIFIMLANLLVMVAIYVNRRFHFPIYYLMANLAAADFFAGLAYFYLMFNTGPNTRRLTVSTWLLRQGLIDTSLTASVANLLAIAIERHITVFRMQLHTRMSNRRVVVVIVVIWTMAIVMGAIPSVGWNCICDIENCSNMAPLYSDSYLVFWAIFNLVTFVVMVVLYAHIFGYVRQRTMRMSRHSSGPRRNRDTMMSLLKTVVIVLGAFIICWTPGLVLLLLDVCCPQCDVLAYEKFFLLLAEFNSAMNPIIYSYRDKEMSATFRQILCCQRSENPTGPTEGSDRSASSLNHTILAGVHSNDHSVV

Row | SMILES | IC50 [nM]
1 | Cc1ccc(NC(=O)C2(c3ccccc3C(C)C)CC(=O)N(C)C2)c(OC(F)F)n1 (centres unmarked) [Example 3, N-(2-(difluoromethoxy)-6-methylpyridin-3-yl)-3-(2-isopropylphenyl)-1-methyl-5-oxopyrrolidine-3-carboxamide] | 10 to 100
2 | COc1ccc(NC(=O)C2(c3ccccc3C(C)C)COC2)c(OC(F)F)n1 [Example 15, N-(2-(difluoromethoxy)-6-methoxypyridin-3-yl)-3-(2-isopropylphenyl)oxetane-3-carboxamide] | < 10
3 | Cc1ccc(NC(=O)C2(c3ccccc3C(C)C)COC2)c(OC(F)F)n1 [Example 17, N-(2-(difluoromethoxy)-6-methylpyridin-3-yl)-3-(2-isopropylphenyl)oxetane-3-carboxamide] | 10 to 100
4 | COc1ccc(NC(=O)C2(c3ccccc3C(C)C)CCC(=O)CC2)c(OC(F)F)n1 [Example 80, N-(2-(difluoromethoxy)-6-methoxypyridin-3-yl)-1-(2-isopropylphenyl)-4-oxocyclohexane-1-carboxamide] | 10 to 100
5 | CCOCN1CC(C(=O)Nc2ncc(Cl)cc2OC(F)F)(c2ccccc2C(C)C)CC1=O (centres unmarked) [Example 11, N-(5-chloro-3-(difluoromethoxy)pyridin-2-yl)-1-(ethoxymethyl)-3-(2-isopropylphenyl)-5-oxopyrrolidine-3-carboxamide] | 100 to 1000
6 | COc1cc(C)ccc1NC(=O)C1(c2ccccc2C(C)C)CNC(=O)C1 (single isomer, unassigned) [Example 102-isomer B, 3-(2-isopropylphenyl)-N-(2-methoxy-4-methylphenyl)-5-oxopyrrolidine-3-carboxamide] | > 1000
7 | Cc1ccc(NC(=O)C2(c3ccccc3C(C)C)CC(C)(O)C2)c(OC(F)F)n1 (single isomer, unassigned) [Example 51-isomer B, N-(2-(difluoromethoxy)-6-methylpyridin-3-yl)-3-hydroxy-1-(2-isopropylphenyl)-3-methylcyclobutane-1-carboxamide] | 100 to 1000
8 | COc1ccc(NC(=O)C2(c3ccccc3C(C)C)COC2)c(OC2CC2)n1 [Example 29, N-(2-cyclopropoxy-6-methoxypyridin-3-yl)-3-(2-isopropylphenyl)oxetane-3-carboxamide] | 100 to 1000
9 | Cc1ccc(NC(=O)C2(c3ccccc3C(C)C)CCOCC2)c(OC(F)F)n1 [Example 13, N-(2-(difluoromethoxy)-6-methylpyridin-3-yl)-4-(2-isopropylphenyl)tetrahydro-2H-pyran-4-carboxamide] | 10 to 100
10 | COc1ccc(NC(=O)C2(c3ccccc3C(C)C)CCC(S(C)(=O)=O)CC2)c(OC(F)F)n1 (centres unmarked) [Example 100, N-(2-(difluoromethoxy)-6-methoxypyridin-3-yl)-1-(2-isopropylphenyl)-4-(methylsulfonyl)cyclohexane-1-carboxamide] | 100 to 1000
11 | Cc1ccc(NC(=O)C2(c3ccccc3C(C)C)CC(O)(C(F)(F)C(=O)O)C2)c(OC(F)F)n1 (mixture of isomers) [Example 53, 2-(3-((2-(difluoromethoxy)-6-methylpyridin-3-yl)carbamoyl)-1-hydroxy-3-(2-isopropylphenyl)cyclobutyl)-2,2-difluoroacetic acid] | < 10
12 | Cc1ccc(NC(=O)C2(c3ccccc3C(C)C)CC(NC3CC3)C2)c(OC(F)F)n1 (single isomer, unassigned) [Example 40-isomer B, 3-(cyclopropylamino)-N-(2-(difluoromethoxy)-6-methylpyridin-3-yl)-1-(2-isopropylphenyl)cyclobutane-1-carboxamide] | 100 to 1000
13 | COc1cc(C)ccc1NC(=O)C1(c2ccccc2C(C)C)CNC(=O)C1 (centres unmarked) [Example 101, 3-(2-isopropylphenyl)-N-(2-methoxy-4-methylphenyl)-5-oxopyrrolidine-3-carboxamide] | 10 to 100
14 | COc1nc(NC(=O)C2(c3ccccc3C(C)C)CNC(=O)C2)c(OC(F)F)cc1Cl (centres unmarked) [Example 12, N-(5-chloro-3-(difluoromethoxy)-6-methoxypyridin-2-yl)-3-(2-isopropylphenyl)-5-oxopyrrolidine-3-carboxamide] | > 1000
